The values below come from ChEMBL document CHEMBL1145614, “Antagonists of the human adenosine A2A receptor. Part 3: Design and synthesis of pyrazolo[3,4-d]pyrimidines, pyrrolo[2,3-d]pyrimidines and 6-arylpurines” (Bioorg Med Chem Lett, 2008).

The test system of assay [1] is Mus musculus. The assay can be described thus: Reversal of haloperidol-induced hypolocomotion in mouse at 30 mg/kg, ip. Details: dose 30 mg/kg. Format: functional, organism-based.
Assay [2] concerns Mus musculus. The experiment in a line: Reversal of haloperidol-induced hypolocomotion in mouse at 10 mg/kg, ip. Details: dose 10 mg/kg. Format: functional, organism-based.
The next assay deals with Adenosine receptor A2a (Homo sapiens, UniProt P29274).
The subject of assay [3] is Mus musculus. The experiment in a line: Reversal of haloperidol-induced hypolocomotion in po dosed mouse. Conditions: read-out: MED. Format: functional.
Assay [4] has as its system Mus musculus. The assay can be described thus: Reversal of haloperidol-induced hypolocomotion in mouse at 30 mg/kg, po. Format: functional, organism-based. Also noted: dose 30 mg/kg.
Assay [5] relates to Mus musculus. The assay can be described thus: Reversal of haloperidol-induced hypolocomotion in ip dosed mouse. Conditions: read-out: MED. Format: functional.
The test system of assay [6] is Mus musculus. The assay can be described thus: Reversal of haloperidol-induced hypolocomotion in mouse at 1 mg/kg, po. Format: functional, organism-based. Also noted: dose 1 mg/kg.
In assay [7] the test system is Mus musculus. The experiment in a line: Reversal of haloperidol-induced hypolocomotion in mouse at 10 mg/kg, po. Format: functional, organism-based. Details: dose 10 mg/kg.

Calls of active or inactive are those of the source.

Usually Ki stands for a measure of affinity in units of concentration, obtained from inhibition or displacement. A lower Ki goes with a stronger hold on the target.

Adenosine receptor A2a, sequence (P29274 whole entry): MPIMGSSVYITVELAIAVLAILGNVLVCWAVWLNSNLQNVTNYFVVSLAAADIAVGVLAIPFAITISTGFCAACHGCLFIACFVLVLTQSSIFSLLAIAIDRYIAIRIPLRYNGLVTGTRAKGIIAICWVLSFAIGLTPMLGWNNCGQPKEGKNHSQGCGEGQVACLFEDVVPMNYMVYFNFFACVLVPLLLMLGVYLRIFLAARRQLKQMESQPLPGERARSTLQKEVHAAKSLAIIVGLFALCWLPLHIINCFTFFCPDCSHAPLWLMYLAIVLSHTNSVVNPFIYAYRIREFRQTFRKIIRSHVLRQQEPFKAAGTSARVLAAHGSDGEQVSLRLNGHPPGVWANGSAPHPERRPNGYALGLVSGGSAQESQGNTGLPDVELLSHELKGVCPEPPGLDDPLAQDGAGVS
Description for Adenosine receptor A2a: Binding affinity at human adenosine A2A receptor

As for `Nc1nc(-c2ccco2)c2ncn(C(=O)NCc3ccccc3Cl)c2n1`, in the assay with Mus musculus [1], the outcome was Active.
On to `Nc1nc(-c2ccco2)c2nc[nH]c2n1`, for which the result in the assay with Mus musculus [1], with Mus musculus [2] and with Mus musculus [6] was Active. At Adenosine receptor A2a, affinity was put at a Ki of 0.261 µM. Also, the minimal effective dose in the assay with Mus musculus [3] came out at 1 mg/kg; in the assay with Mus musculus [5], 10 mg/kg. Further, the result in the assay with Mus musculus [4] was inactive.
In the case of `Nc1nc(-c2ccco2)c2ncn(C(=O)NCc3cccs3)c2n1`, the result in the assay with Mus musculus [1] and with Mus musculus [4] was Active. Besides, the minimal effective dose in the assay with Mus musculus [3] is 30 mg/kg; with Mus musculus [5] it was < 30 mg/kg.
`CS(=O)(=O)c1ccc(Cn2cnc3c(-c4ccco4)nc(N)nc32)cc1` had a Ki at Adenosine receptor A2a of 0.779 µM.
On to `Nc1nc(-c2ccco2)c2cc[nH]c2n1`, for which the outcome in the assay on Mus musculus [1] was Active. At Adenosine receptor A2a, this molecule came in with an inhibition constant Ki of 0.242 µM.
For the molecule `Nc1cccc(Cn2ncc3c(-c4ccco4)nc(N)nc32)c1`, in the assay on Mus musculus [1], the outcome was Active.
Consider `Nc1nc(-c2ccco2)c2cnn(Cc3ccccc3F)c2n1`, for which, in the assay with Mus musculus [1], the result was Active. The Ki on Adenosine receptor A2a was 0.004 µM.
Taken in the same sequence, the figures for `Nc1nc(-c2nccs2)c2cnn(Cc3ccccc3F)c2n1` were “inactive” and 0.017 µM.
With `CSc1nc(-c2ccco2)c2ncn(C(=O)NCc3ccccc3)c2n1`, in the assay on Mus musculus [1], the outcome was inactive. This molecule yielded a Ki on Adenosine receptor A2a of 0.013 µM.
In the case of `Nc1nc(-c2ccco2)c2ncn(C(=O)NCCc3ccccc3)c2n1`, the outcome with Mus musculus [1] was Active.
`Nc1nc(-c2ccco2)c2cnn(Cc3ccccc3N)c2n1`: in the assay on Mus musculus [1], the outcome was Active.
As for `Nc1nc(-c2ccco2)c2cnn(Cc3ccco3)c2n1`, the result with Mus musculus [1] was Active. This molecule also registered a Ki at Adenosine receptor A2a of 0.036 µM.
Regarding `Nc1nc(-c2ccco2)c2cnn(CCCc3ccccc3)c2n1`, the result with Mus musculus [1] was Active. At Adenosine receptor A2a, this molecule registered a Ki of 0.004 µM.
As to `Nc1nc(-c2cncs2)c2ncn(C(=O)NCc3ccccc3)c2n1`, the outcome in the assay with Mus musculus [1] was Active. The affinity on Adenosine receptor A2a, expressed as Ki, was 0.056 µM.
With `Nc1nc(-c2ccco2)c2ncn(C(=O)NCc3ccccc3)c2n1`, in the assay on Mus musculus [1], the outcome was Active.
On to `Cc1cccc(Cn2cnc3c(-c4ccco4)nc(N)nc32)c1`, for which the outcome in the assay on Mus musculus [1] was Active. For the same molecule, the Ki on Adenosine receptor A2a was determined as 0.006 µM.
As for `Nc1nc(-c2ccco2)c2cnn(Cc3cccc(Cl)c3)c2n1`, the result in the assay with Mus musculus [1] was Active.
On to `Nc1nc(-c2ccco2)c2ncn(Cc3cccc(Cl)c3)c2n1`, for which the result with Mus musculus [1] was inactive. Also, the affinity on Adenosine receptor A2a, expressed as Ki, was 0.008 µM.
As for `C[C@@H](NC(=O)n1cnc2c(-c3ccco3)nc(N)nc21)c1ccccc1`, in the assay with Mus musculus [1], the result was inactive. The affinity on Adenosine receptor A2a corresponds to a Ki of 0.026 µM.
For the molecule `Nc1nc(-c2ccco2)c2ncn(Cc3ccc(C(F)(F)F)cc3)c2n1`, the outcome in the assay on Mus musculus [1] was Active.
On to `COc1cccc(Cn2ncc3c(-c4ccco4)nc(N)nc32)c1`, for which, in the assay on Mus musculus [1], the result was Active.
For `Nc1nc(-c2ccco2)c2cnn(Cc3c(F)cccc3F)c2n1`, in the assay on Mus musculus [1], the result was Active.
For `Nc1nc(-c2cccs2)c2cnn(Cc3ccccc3F)c2n1`, on Adenosine receptor A2a, the Ki came out at 0.009 µM.
Turning to `Nc1nc(-c2ccco2)c2ncn(Cc3cccc([N+](=O)[O-])c3)c2n1`, in the assay with Mus musculus [1], the result was inactive. The molecule further returned an inhibitory constant (Ki) on Adenosine receptor A2a of 0.085 µM.
Consider `COC(=O)c1cccc(Cn2cnc3c(-c4ccco4)nc(N)nc32)c1`, for which the result with Mus musculus [1] was inactive. Further, at Adenosine receptor A2a, the Ki turned out to be 0.045 µM.
For `Nc1nc(-c2ccco2)c2ncn(Cc3ccccc3)c2n1`, in the assay with Mus musculus [1], the result was Active.
`Nc1nc(-c2ncc[nH]2)c2cnn(Cc3ccccc3F)c2n1` came in with a Ki at Adenosine receptor A2a of 2.09 µM.
Take `Nc1nc(-c2ccco2)c2cnn(Cc3ccccc3[N+](=O)[O-])c2n1`: in the assay with Mus musculus [1], the outcome was inactive. The molecule further displayed a Ki at Adenosine receptor A2a of 0.026 µM.
In the case of `Nc1nc(-c2ccco2)c2cnn(Cc3ccc([N+](=O)[O-])cc3)c2n1`, the outcome with Mus musculus [1] was inactive. Besides, the Ki at Adenosine receptor A2a came out at 0.119 µM.
For `C[C@H](NC(=O)n1cnc2c(-c3ccco3)nc(N)nc21)c1ccccc1`, the result in the assay with Mus musculus [1] was Active.
The same measure, in the same setting: the same measure for `Nc1nc(-c2ccco2)c2ncn(Cc3c(F)cccc3F)c2n1`: “Active”; for `Nc1nc(-c2cc[nH]n2)c2cnn(Cc3ccccc3F)c2n1`: “Active”.
On to `Nc1nc(-c2ccco2)c2cn[nH]c2n1`, for which, in the assay with Mus musculus [1], the result was Active. On Adenosine receptor A2a, this molecule returned a Ki of 0.048 µM.
As for `Nc1nc(-c2ccco2)c2cnn(Cc3ccccc3)c2n1`, the result in the assay on Mus musculus [1] was Active. On Adenosine receptor A2a, affinity was put at a Ki of 0.003 µM.
Turning to `Nc1nc(-c2ccco2)c2ncn(C(=O)Nc3ccccc3)c2n1`, in the assay on Mus musculus [1], the result was Active. At Adenosine receptor A2a, this molecule had an inhibition constant Ki of 0.206 µM.
On the same counts, the results for `OCCNc1nc(-c2ccco2)c2cnn(CCc3ccccc3)c2n1` are “inactive” and 0.135 µM.
Consider `Cc1ccc(CNC(=O)n2cnc3c(-c4ccco4)nc(N)nc32)cc1`, for which the outcome in the assay with Mus musculus [1] was Active.
For the molecule `Nc1nc(-c2ccco2)c2cnn(Cc3cccc([N+](=O)[O-])c3)c2n1`, the outcome with Mus musculus [1] was Active.
Take `Nc1nc(-n2ccnn2)c2cnn(Cc3ccccc3F)c2n1`: the outcome with Mus musculus [1] was Active. This molecule yielded a Ki on Adenosine receptor A2a of 0.071 µM.
On the same counts, the results for `Nc1nc(-c2ccco2)c2cnn(C(=O)NCc3ccccc3)c2n1` are “Active” and 0.001 µM.
Take `Nc1nc(-c2ccco2)c2cnn(CC3CCCCC3)c2n1`: the outcome in the assay on Mus musculus [1] was Active. For the same molecule, the Ki at Adenosine receptor A2a turned out to be 0.045 µM.
Taken in the same sequence, the figures for `CS(=O)(=O)c1ccc(Cn2ncc3c(-c4ccco4)nc(N)nc32)cc1` were “inactive” and 0.34 µM.
`Nc1nc(-c2ccco2)c2ncn(C(=O)NCc3ccc(F)cc3)c2n1`: the result in the assay on Mus musculus [1] was Active.
For `Nc1nc(-c2ccco2)c2cnn(Cc3cccc(C(=O)O)c3)c2n1`, in the assay with Mus musculus [1], the result was inactive. This molecule registered a Ki at Adenosine receptor A2a of 1.32 µM.
For the molecule `Nc1cccc(Cn2cnc3c(-c4ccco4)nc(N)nc32)c1`, the result with Mus musculus [1] and in the assay with Mus musculus [4] was Active. In addition, affinity at Adenosine receptor A2a was put at a Ki of 0.023 µM. In addition, the values for the minimal effective dose in the assay on Mus musculus [3] and with Mus musculus [5] were 30 mg/kg and 10 mg/kg, respectively.
As for `COC(=O)c1cccc(Cn2ncc3c(-c4ccco4)nc(N)nc32)c1`, the outcome in the assay with Mus musculus [1] was Active. Further, the Ki at Adenosine receptor A2a amounted to 0.004 µM.
Taken in the same sequence, the figures for `Nc1nc(-c2ccco2)c2cnn(Cc3cccnc3)c2n1` were “Active” and 0.028 µM.
On the same counts, the results for `Nc1nc(-c2ccco2)c2ncn(Cc3ccccc3F)c2n1` are “Active” and 0.005 µM.
On to `COc1cccc(Cn2cnc3c(-c4ccco4)nc(N)nc32)c1`, for which the result with Mus musculus [1] was Active.
With `Cc1cccc(CNC(=O)n2cnc3c(-c4ccco4)nc(N)nc32)c1`, the result in the assay on Mus musculus [1] and in the assay with Mus musculus [4] was Active. Further, the minimal effective dose in the assay on Mus musculus [3] was 30 mg/kg; in the assay with Mus musculus [5], 1 mg/kg.
With `Nc1nc(-c2ccccn2)c2cnn(Cc3ccccc3F)c2n1`, in the assay on Mus musculus [1], the outcome was Active.
As to `Cn1ccnc1-c1nc(N)nc2c1cnn2Cc1ccccc1F`, in the assay on Mus musculus [1], the result was inactive. This molecule also returned a Ki on Adenosine receptor A2a of 1.62 µM.
`Cc1nc(-c2ccco2)c2ncn(C(=O)NCc3ccccc3)c2n1` gave an inhibition constant Ki on Adenosine receptor A2a of 0.102 µM.
At Adenosine receptor A2a, `CN(C)c1nc(-c2ccco2)c2cnn(CCc3ccccc3)c2n1` showed a Ki of 1.89 µM.
Regarding `Nc1nc(-c2cccs2)c2ncn(C(=O)NCc3ccccc3)c2n1`, the result with Mus musculus [1] was inactive. Further, on Adenosine receptor A2a, the inhibition constant (Ki) was found to be 0.013 µM.
At Adenosine receptor A2a, `Nc1nc(-c2ccco2)c2ncn(Cc3cccc(C(=O)O)c3)c2n1` registered a Ki of 4.1 µM.
As for `Nc1nc(-c2ccco2)c2cnn(CCc3ccccc3)c2n1`, the outcome with Mus musculus [1] was inactive. Also, affinity on Adenosine receptor A2a was put at a Ki of 0.11 µM.
Regarding `Nc1nc(-c2ccco2)c2ncn(C(=O)NCc3ccco3)c2n1`, the outcome with Mus musculus [1], with Mus musculus [7] and in the assay on Mus musculus [4] was Active. In addition, the minimal effective dose with Mus musculus [3] was 10 mg/kg; with Mus musculus [5] it was < 30 mg/kg.
Turning to `Cc1cccc(Cn2ncc3c(-c4ccco4)nc(N)nc32)c1`, the outcome in the assay on Mus musculus [1] was Active. The Ki at Adenosine receptor A2a came out at 0.003 µM.
As for `Nc1nc(-c2ccccc2)c2ncn(C(=O)NCc3ccccc3)c2n1`, in the assay with Mus musculus [1], the outcome was Active. This molecule also had a Ki on Adenosine receptor A2a of 0.017 µM.
`Nc1nc(-c2ccco2)c2cnn(Cc3ccc(C(F)(F)F)cc3)c2n1`: in the assay on Mus musculus [1], the result was inactive.
As to `CN(C)c1nc(-c2ccco2)c2ncn(C(=O)NCc3ccccc3)c2n1`, the result with Mus musculus [1] was inactive. Moreover, the affinity on Adenosine receptor A2a corresponds to a Ki of 0.023 µM.
For the molecule `Nc1nc(-c2ccco2)c2ncn(Cc3ccc([N+](=O)[O-])cc3)c2n1`, at Adenosine receptor A2a, the affinity, expressed as Ki, was 0.372 µM.
For the molecule `Nc1nc(-c2ccco2)c2cnn(Cc3ccccc3Cl)c2n1`, the result in the assay with Mus musculus [1] was inactive.
